In assay [1] the target is T1, α1B Human Adrenergic Receptor (Homo sapiens, UniProt P35368).
T1 construct: The entire coding region of α1B (1563 bp); expressed in transfected cells
T1 sequence (P35368 1-520): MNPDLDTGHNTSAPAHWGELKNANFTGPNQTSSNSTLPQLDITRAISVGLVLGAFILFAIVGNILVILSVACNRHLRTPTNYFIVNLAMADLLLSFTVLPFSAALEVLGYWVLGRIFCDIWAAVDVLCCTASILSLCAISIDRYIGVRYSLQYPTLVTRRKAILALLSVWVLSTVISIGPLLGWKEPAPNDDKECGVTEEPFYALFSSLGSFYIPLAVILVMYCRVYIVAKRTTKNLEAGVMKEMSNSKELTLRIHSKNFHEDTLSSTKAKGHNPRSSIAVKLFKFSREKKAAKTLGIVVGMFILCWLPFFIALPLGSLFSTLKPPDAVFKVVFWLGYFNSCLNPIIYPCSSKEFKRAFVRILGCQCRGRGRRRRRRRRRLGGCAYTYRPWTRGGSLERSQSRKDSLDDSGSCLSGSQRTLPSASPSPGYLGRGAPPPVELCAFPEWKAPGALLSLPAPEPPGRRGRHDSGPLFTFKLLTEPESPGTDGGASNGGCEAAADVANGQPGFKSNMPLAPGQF
Put plainly: Radioligand binding, [3H]prazosin, cloned human α1B adrenergic receptor. The settings on record: cloned human α1B receptor, LM(tk−) cell membranes. Put shortly: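 Membranes from stably transfected LM(tk−) cells, resuspended in 50 mM Tris-HCl, 1 mM MgCl2, 0.1% ascorbic acid, pH 7.5, were incubated with 0.5 nM [3H]prazosin for 20 min at 37° C. Nonspecific binding defined with 10 μM phentolamine; bound ligand separated by GF/B filtration.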

Assay [2] deals with T2, α1C Human Adrenergic Receptor (Homo sapiens, UniProt P35348).
T2 construct: The entire coding region of α1C (1401 bp); expressed in transfected cells
T2 sequence (P35348 1-466): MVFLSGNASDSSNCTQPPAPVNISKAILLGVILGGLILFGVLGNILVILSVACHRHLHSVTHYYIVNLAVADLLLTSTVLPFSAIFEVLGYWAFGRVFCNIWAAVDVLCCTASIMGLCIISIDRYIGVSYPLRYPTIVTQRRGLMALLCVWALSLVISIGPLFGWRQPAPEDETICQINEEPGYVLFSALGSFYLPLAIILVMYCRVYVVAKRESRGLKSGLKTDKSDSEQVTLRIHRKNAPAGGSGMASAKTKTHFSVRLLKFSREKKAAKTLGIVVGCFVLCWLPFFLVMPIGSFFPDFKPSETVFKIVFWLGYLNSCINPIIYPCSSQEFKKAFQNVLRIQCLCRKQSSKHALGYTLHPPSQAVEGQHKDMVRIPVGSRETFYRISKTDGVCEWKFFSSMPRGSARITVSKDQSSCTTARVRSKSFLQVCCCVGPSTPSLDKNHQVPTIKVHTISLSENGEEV
The experiment in a line: Radioligand binding, [3H]prazosin, cloned human α1C adrenergic receptor. Conditions: cloned human α1C receptor, LM(tk−) cell membranes. Put shortly: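 Stably transfected mouse LM(tk−) fibroblast membranes bearing the cloned human α1C adrenoceptor served as receptor source. Specific binding was taken as the portion of 0.5 nM [3H]prazosin displaceable by 10 μM phentolamine after 20 min at 37° C., pH 7.5, in Mg2+/ascorbate-containing Tris buffer.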

In a further assay the target is T3, α2B receptor (Homo sapiens, UniProt P18089).
T3 construct: host or cells: LM(tk-) cells, line L-NGC-α2B
T3 sequence (P18089 1-450): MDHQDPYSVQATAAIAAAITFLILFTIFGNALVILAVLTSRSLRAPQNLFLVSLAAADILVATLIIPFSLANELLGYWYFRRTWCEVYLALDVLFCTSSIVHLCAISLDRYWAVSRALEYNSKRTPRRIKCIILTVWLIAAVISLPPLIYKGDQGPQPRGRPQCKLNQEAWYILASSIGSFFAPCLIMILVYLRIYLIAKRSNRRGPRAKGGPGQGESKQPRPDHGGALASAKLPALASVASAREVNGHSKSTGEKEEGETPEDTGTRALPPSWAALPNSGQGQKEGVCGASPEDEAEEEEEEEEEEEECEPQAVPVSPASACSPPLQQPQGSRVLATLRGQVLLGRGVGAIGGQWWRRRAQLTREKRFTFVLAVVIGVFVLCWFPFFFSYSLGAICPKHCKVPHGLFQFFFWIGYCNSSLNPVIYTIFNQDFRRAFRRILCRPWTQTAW
Put plainly: Competition binding, [3H]rauwolscine, human α2B receptor. The method, boiled down: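 LM(tk−) lysates, stable α2A/α2B/α2C transfectants; 25 mM glycylglycine pH 7.6 (RT). [3H]rauwolscine 0.5 nM, equilibrium competition; NSB 10 μM phentolamine. GF/B filtration, cell harvester.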

Setting [3] is: read-out: pKi alpha-1 1b (converted).
Setting [4] is: read-out: pKi alpha-1 1c (converted).
Where [5] appears, read: pKi alpha-2 2b, [3H]rauwolscine, human α2B receptor, LM(tk−) cells.
Setting [6] is: [3H]rauwolscine, human α2B receptor, LM(tk−) cells, read-out: pKi alpha-2 2b (converted).

SMILES strings stand for the structures. Structures can show the parent of a compound that is named as a salt. Where two headings read alike, the source gives them in different places.

On to `CCC1=C(C(N)=O)C(c2ccc([N+](=O)[O-])cc2)C(C(=O)NCCCN2CCC3(CC2)C(=O)NCN3c2ccccc2)=C(CC)N1` (stereo not drawn) [Example 105, 5-Carboxamido-2,6-diethyl-1,4-dihydro-4-(4-nitrophenyl)-3-{N-[3-(1-phenyl-4-oxo-1,3,8-triazaspiro[4.3]decan-8-yl)propyl]}carboxamidopyridine hydrochloride hydrate], for which the Ki is 3160 nM in assay [1] (setting [3]), 692 nM in assay [2] (setting [4]) and 2190 nM on α2B receptor (pKi alpha-2 2b).
Take `CCC1=C(C(N)=O)C(c2ccc([N+](=O)[O-])cc2)C(C(=O)NCCCN2CCC(C)(c3ccccc3)CC2)=C(CC)N1` (stereo not drawn) [Example 106, 5-Carboxamido-2,6-diethyl-1,4-dihydro-3-{N-[3-(4-Methyl-4-phenylpiperidin-1-yl)propyl]}carboxamido-4-(4-nitrophenyl)pyridine hydrochloride hydrate]: the Ki was 933 nM in assay [1] (pKi alpha-1 1b), 15.1 nM in assay [2] (pKi alpha-1 1c) and 372 nM at α2B receptor (setting [5]).
Taken in the same sequence, the figures for `CCC1=C(C(=O)NCCCN2CCC(c3ccccc3)(c3ccccc3)CC2)C(c2cccc(OC)c2)C(C(=O)NCCCN2CCC(c3ccccc3)(c3ccccc3)CC2)=C(CC)N1` [Example 112, 2,6-Diethyl-1,4-dihydro-4-(3-methoxyphenyl)-3,5-bis(N-(3-(4,4-diphenylpiperidin-1-yl)propyl)carboxamido)-pyridine] were 23.4 nM, 24.5 nM and 447 nM.
Take `CCC1=C(C(=O)NCCCN2CCC(c3ccccc3)(c3ccccc3)CC2)C(c2cccc(OC)c2)C(C(N)=O)=C(C)N1` (stereo not drawn) [Example 113, 5-Carboxamide-2-ethyl-1,4-dihydro-4-(3-methoxyphenyl)-6-methyl-3-(N-(3-(4,4-diphenylpiperidin-1-yl)propyl)carboxamido)-pyridine]: the Ki was 347 nM in assay [1] (pKi alpha-1 1b), 17.8 nM in assay [2] (pKi alpha-1 1c) and 166 nM at α2B receptor (setting [5]).
Turning to `CCC1=C(C(=O)NCCCN2CCC(c3ccccc3)(c3ccccc3)CC2)C(c2ccc(N)cc2)C(C(=O)OC)=C(C)N1` (stereo not drawn) [Example 114, 4-(4-Aminophenyl)-2-ethyl-1,4-dihydro-5-methoxycarbonyl-6-methyl-3-(N-(3-(4,4-diphenylpiperidin-1-yl)propyl)carboxamido)-pyridine], the figures for the Ki (in assay [1] (setting [3]); in assay [2] (setting [4]); at α2B receptor (pKi alpha-2 2b)) were 204 nM, 10.2 nM and 468 nM, respectively.
For the compound `CC1=C(C(N)=O)C(c2ccc(S(C)(=O)=O)cc2)C(C(=O)NCCCN2CCC(c3ccccc3)(c3ccccc3)CC2)=C(C)N1` (stereo not drawn) [Example 115, 5-Carboxamido-1,4-4-dihydro-4-(4-methanesufonylphenyl)-2,6-dimethyl-3-(N-(3-(4,4-diphenylpiperidin-1-yl)propyl)carboxamido)-pyridine], the figures for the Ki (in assay [1] (pKi alpha-1 1b); in assay [2] (pKi alpha-1 1c); on α2B receptor (setting [5])) were 1450 nM, 58.9 nM and 776 nM, respectively.
In the case of `CCC1=C(C(N)=O)C(c2ccc(S(C)(=O)=O)cc2)C(C(=O)NCCCN2CCC(c3ccccc3)(c3ccccc3)CC2)=C(CC)N1` (stereo not drawn) [Example 116, 5-Carboxamido-2,6-diethyl-1,4-dihydro-4-(4-methanesulfonylphenyl)-3-(N-(3-(4,4-diphenylpiperidin-1-yl)propyl)carboxamido)-pyridine], the Ki was 759 nM in assay [1] (pKi alpha-1 1b), 3.89 nM in assay [2] (pKi alpha-1 1c) and 372 nM on α2B receptor (setting [5]).
For `COc1cccc(C2C(C(N)=O)=C(C)NC(C)=C2C(=O)NCCCN2CCC(c3ccccc3)(c3ccccc3)CC2)c1` (stereo not drawn) [Example 117, 5-Carboxamido-1,4-dihydro-4-(3-Methoxyphenyl)-2,6-dimethyl-3-(N-(3-(4,4-diphenylpiperidin-1-yl)propyl)carboxamido)-pyridine], in that order: 562 nM, 27.5 nM and 437 nM.
For `CCC1=C(C(N)=O)C(c2ccc(S(C)(=O)=O)cc2)C(C(=O)NCCCN2CCC(c3ccccc3)(c3ccccc3)CC2)=C(C)N1` (stereo not drawn) [Example 118, 3-Carboxamido-2-ethyl-1,4-dihydro-4-(4-methanesulfonylphenyl)-6-methyl-3-(N-(3-(4,4-diphenylpiperidin-1-yl)propyl)carboxyamido)-pyridine], the values for the Ki (in assay [1] (pKi alpha-1 1b); in assay [2] (pKi alpha-1 1c); on α2B receptor (setting [5])) were 1780 nM, 9.55 nM and 1450 nM, respectively.
In the case of `CCC1=C(C(N)=O)C(c2ccc([N+](=O)[O-])cc2)C(C(=O)NCCCN2CCN(c3ccccc3OC)CC2)=C(CC)N1` (stereo not drawn) [Example 125, 5-Carboxamido-2,6-diethyl-1,4-dihydro-3-(N-{3-[4-(2-methoxyphenyl)piperazin-1-yl]propyl})carboxamido-4-(4-nitrophenyl)pyridine], the Ki in assay [1] (setting [3]) is 129 nM; in assay [2] (setting [4]) it was 1.15 nM; at α2B receptor (setting [6]), 186 nM.
On to `CC(C)C1=C(C(N)=O)C(c2ccc([N+](=O)[O-])cc2)C(C(=O)NCCCN2CCC(c3ccccc3)(c3ccccc3)CC2)=C(C(C)C)N1` (stereo not drawn) [Example 127], for which, in assay [1], the “pKi alpha-1 1b” value was 6.79. Also, the Ki in assay [2] (pKi alpha-1 1c) is 55 nM. The “pKi alpha-2 2b” value on α2B receptor ([3H]rauwolscine, human α2B receptor, LM(tk−) cells) worked out at 6.42.
`CCC1=C(C(=O)NC)C(c2ccc([N+](=O)[O-])cc2)C(C(=O)NCCCN2CCC(c3ccccc3)(c3ccccc3)CC2)=C(CC)N1` (stereo not drawn) [Example 128, 2,6-Diethyl-1,4-dihydro-5-(N-methyl)carboxamido-4-(4-nitrophenyl)-3-{N-[3-(4,4-diphenylpiperidin-1-yl)propyl]}carboxamidopyridine]: the Ki is 1050 nM in assay [1] (pKi alpha-1 1b), 3.39 nM in assay [2] (pKi alpha-1 1c) and 437 nM on α2B receptor (setting [5]).
On to `CCC1=C(C(=O)OCCC#N)C(c2ccc([N+](=O)[O-])cc2)C(C(=O)NCCCN2CCC(c3ccccc3)(c3ccccc3)CC2)=C(COC)N1` (stereo not drawn) [Example 135], for which the Ki in assay [1] (setting [3]) is 178 nM; in assay [2] (setting [4]) it was 105 nM; at α2B receptor (setting [6]) it was 389 nM.
As to `CCC1=C(C(=O)NCCCN2CCC(c3ccccc3)(c3ccccc3)CC2)C(c2ccc([N+](=O)[O-])cc2)C(C(=O)OC(C)(C)C)=C(COCCN=[N+]=[N-])N1` (stereo not drawn) [Example 139], the Ki in assay [1] (pKi alpha-1 1b) is 141 nM; in assay [2] (pKi alpha-1 1c), 23.4 nM; at α2B receptor (setting [5]), 1260 nM.
For the compound `CCC1=C(C(=O)OCCC#N)C(c2ccc([N+](=O)[O-])cc2)C(C(=O)NCCCN2CCC(c3ccccc3)(c3ccccc3)CC2)=C(COCCN=[N+]=[N-])N1` (stereo not drawn) [Example 141], the values for the Ki (in assay [1] (pKi alpha-1 1b); in assay [2] (pKi alpha-1 1c); at α2B receptor (setting [5])) were 33.1 nM, 5.37 nM and 437 nM, respectively.
Taken in the same sequence, the figures for `CCNC(=O)C1=C(COCCN=[N+]=[N-])NC(CC)=C(C(=O)NCCCN2CCC(c3ccccc3)(c3ccccc3)CC2)C1c1ccc([N+](=O)[O-])cc1` (stereo not drawn) [Example 147, 2-((2-Azidoethyl)oxy)methyl-6-ethyl-3-(N-ethyl)carboxamido-1,4-dihydro-4-(4-nitro)phenyl-5-(N-(3-(4,4-diphenylpiperidin-1-yl-)propyl))carboxamidopyridine] were 257 nM, 11 nM and 1100 nM.

Source of the values: patent US6608086B2, “Dihydropyridines and new uses thereof” (Synaptic Pharmaceutical Corporation, priority 1993, dated 2003).
